Among the test systems are K-562 leukemia; MDA-MB-435; OVCAR-8 ovarian; IGROV1 ovarian; UO-31 renal; MALME-3M melanoma; UACC-62 melanoma; MDA-MB-231 breast; SK-MEL-2 melanoma; OVCAR-3 ovarian.
Holding throughout (assay): DTP human tumour cell line panel, 48 h

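Growth conditions: 96-well plates. Treatment: test compound, 48 hours, 5 concentrations. Analysis: linear interpolation between bracketing concentrations; unreached endpoints set to highest concentration. At the GI50, growth is halved. TGI marks complete inhibition of growth.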

A word on the GI50: it is the concentration that inhibits growth by half. As a reminder, the TGI is the concentration at which net growth stops. Read a high TGI as lower sensitivity of the cells.

On to `N=C(N)c1ccc(-c2ccc(-c3cccs3)s2)cc1F`, for which the GI50 in the assay with K-562 leukemia is 0.341 µM; in the assay with MDA-MB-435 it was 1.13 µM; with OVCAR-8 ovarian, 2.04 µM; in the assay on IGROV1 ovarian it was 2.28 µM; in the assay with UO-31 renal, 1.55 µM; in the assay on MALME-3M melanoma, 2.28 µM. Moreover, the GI50 with UACC-62 melanoma is 1.62 µM; with MDA-MB-231 breast, 1.16 µM; in the assay on SK-MEL-2 melanoma, 1.94 µM; in the assay with OVCAR-3 ovarian, 1.47 µM. Besides, the TGI in the assay on K-562 leukemia was determined as 1.31 µM; in the assay with MDA-MB-435, 2.37 µM; with OVCAR-8 ovarian, 5.19 µM; with IGROV1 ovarian, 4.74 µM; in the assay with UO-31 renal it was 3.34 µM; in the assay on MALME-3M melanoma, 4.48 µM. In addition, the total growth inhibition concentration (TGI) in the assay on UACC-62 melanoma turned out to be 3.34 µM; with MDA-MB-231 breast, 2.93 µM; with SK-MEL-2 melanoma it was 3.65 µM; with OVCAR-3 ovarian, 3.09 µM.
Consider `CCn1nc(C#Cc2c(C)ccc3c(Nc4ccc(Cl)cc4)nccc23)c2c(N)ncnc21`, for which the GI50 in the assay with K-562 leukemia was 2.18 µM; in the assay on MDA-MB-435 it was 1.08 µM; with OVCAR-8 ovarian it was 4.35 µM; with IGROV1 ovarian, 3.09 µM; in the assay with UO-31 renal it was 2.09 µM; in the assay with MALME-3M melanoma it was 2.1 µM. Further, the GI50 is 1.6 µM with UACC-62 melanoma, 1.89 µM in the assay on MDA-MB-231 breast, 1.92 µM in the assay on SK-MEL-2 melanoma and 3.46 µM in the assay with OVCAR-3 ovarian. Besides, the TGI was more than 100 µM in the assay on K-562 leukemia; 4.57 µM in the assay on MDA-MB-435; more than 100 µM in the assay with OVCAR-8 ovarian; more than 100 µM in the assay on IGROV1 ovarian; more than 100 µM in the assay with UO-31 renal; 7.09 µM in the assay on MALME-3M melanoma. Further, the TGI is 9.1 µM in the assay on UACC-62 melanoma, 27.8 µM with MDA-MB-231 breast, 6.53 µM in the assay with SK-MEL-2 melanoma and more than 100 µM in the assay on OVCAR-3 ovarian.
For `COC(=O)[C@@H](C)C[C@H](Cc1ccccc1)NC(=O)c1nc([C@@H](C[C@H](C(C)C)N(C)C(=O)[C@@H](NC(=O)[C@H]2CC(=O)CCN2C)C(C)C)OC(C)=O)sc1C(C)C`, the GI50 is 0.0684 µM in the assay on K-562 leukemia; 0.0169 µM with MDA-MB-435; 0.48 µM in the assay on OVCAR-8 ovarian; 0.111 µM in the assay with IGROV1 ovarian; 0.951 µM in the assay with UO-31 renal; 0.119 µM with MALME-3M melanoma. The concentration for 50% growth inhibition (GI50) is 0.0722 µM with UACC-62 melanoma, 0.373 µM with MDA-MB-231 breast, 0.104 µM in the assay with SK-MEL-2 melanoma and 0.0542 µM in the assay with OVCAR-3 ovarian. Further, the concentration for total growth inhibition (TGI) in the assay on K-562 leukemia was more than 16.7 µM; with MDA-MB-435, 0.0921 µM; in the assay on OVCAR-8 ovarian, more than 16.7 µM; in the assay on IGROV1 ovarian, more than 13.5 µM; in the assay on UO-31 renal it was more than 10.5 µM; in the assay on MALME-3M melanoma, more than 16.7 µM. Moreover, the TGI was more than 16.7 µM in the assay with UACC-62 melanoma, 3.28 µM in the assay on MDA-MB-231 breast, more than 16.7 µM in the assay with SK-MEL-2 melanoma and 0.62 µM in the assay with OVCAR-3 ovarian.
On to `O=c1c2cc(F)ccc2sc2c(NCCCNCCO)nc3ccc(F)cc3c12`, for which the GI50 is 2.34 µM with K-562 leukemia; 1.71 µM with MDA-MB-435; 2.09 µM in the assay with OVCAR-8 ovarian; 1.25 µM with IGROV1 ovarian; 1.11 µM in the assay on UO-31 renal; 1.63 µM in the assay on MALME-3M melanoma. The GI50 with UACC-62 melanoma is 1.72 µM; in the assay with MDA-MB-231 breast, 1.45 µM; with SK-MEL-2 melanoma, 2.04 µM; in the assay on OVCAR-3 ovarian it was 1.78 µM. Further, the TGI in the assay with K-562 leukemia turned out to be 6.68 µM; in the assay on MDA-MB-435, 3.2 µM; with OVCAR-8 ovarian, 4.75 µM; in the assay on IGROV1 ovarian, 2.65 µM; in the assay with UO-31 renal, 2.37 µM; with MALME-3M melanoma, 3.15 µM. Besides, the concentration for total growth inhibition (TGI) in the assay with UACC-62 melanoma was 3.25 µM; with MDA-MB-231 breast, 2.88 µM; in the assay with SK-MEL-2 melanoma, 4.34 µM; with OVCAR-3 ovarian, 3.38 µM.
Take `CNC(=S)N/N=C/CSC/C=N/NC(=S)NC`: the GI50 with K-562 leukemia was 3.08 µM; with MDA-MB-435 it was more than 100 µM; in the assay on OVCAR-8 ovarian, more than 100 µM; in the assay with UO-31 renal, more than 100 µM; in the assay with MALME-3M melanoma, more than 100 µM; in the assay on UACC-62 melanoma, more than 100 µM. Further, the GI50 in the assay on MDA-MB-231 breast is more than 100 µM; with SK-MEL-2 melanoma, more than 100 µM; in the assay with OVCAR-3 ovarian, more than 56.9 µM. The TGI in the assay on K-562 leukemia, with MDA-MB-435, with OVCAR-8 ovarian, in the assay with IGROV1 ovarian, with UO-31 renal and in the assay with MALME-3M melanoma was more than 100 µM in each case. Besides, the TGI in the assay on UACC-62 melanoma, with MDA-MB-231 breast, in the assay with SK-MEL-2 melanoma and in the assay with OVCAR-3 ovarian was more than 100 µM in each case.
For the compound `Cc1ccc(CNc2ccc(Cl)cc2NCc2ccc(C)c(O)c2)cc1O`, the GI50 with K-562 leukemia was 5.98 µM; in the assay with MDA-MB-435 it was 6.7 µM; in the assay with OVCAR-8 ovarian, 8.66 µM; in the assay on IGROV1 ovarian it was 8.66 µM; in the assay with UO-31 renal, 5.42 µM; in the assay with MALME-3M melanoma, 6.2 µM. The GI50 was 7.55 µM in the assay on UACC-62 melanoma, 5.63 µM in the assay with MDA-MB-231 breast, 6.82 µM in the assay with SK-MEL-2 melanoma and 7.15 µM in the assay with OVCAR-3 ovarian. Moreover, the TGI in the assay with K-562 leukemia was determined as 18 µM; in the assay on MDA-MB-435, 13.1 µM; in the assay with OVCAR-8 ovarian, 18.4 µM; in the assay on IGROV1 ovarian it was 18 µM; in the assay on UO-31 renal, 11.7 µM; in the assay with MALME-3M melanoma, 14.7 µM. The total growth inhibition concentration (TGI) in the assay with UACC-62 melanoma was 14.5 µM; with MDA-MB-231 breast, 12.9 µM; with SK-MEL-2 melanoma, 14.5 µM; with OVCAR-3 ovarian, 13.9 µM.
Turning to `CC[C@@]12CC(C(=O)OC)=C3Nc4ccccc4[C@@]34CCN(C[C@H]3O[C@H]31)[C@@H]24`, the GI50 in the assay with K-562 leukemia is 23.2 µM; with MDA-MB-435 it was 16.2 µM; in the assay on OVCAR-8 ovarian, more than 100 µM; in the assay with IGROV1 ovarian, 52.3 µM; with UO-31 renal it was 34.9 µM; in the assay with MALME-3M melanoma, 30.5 µM. In addition, the GI50 in the assay on UACC-62 melanoma was 17.7 µM; in the assay on MDA-MB-231 breast, 47.6 µM; in the assay with SK-MEL-2 melanoma, 25.1 µM; in the assay on OVCAR-3 ovarian, 78.5 µM. Also, the TGI with K-562 leukemia was more than 100 µM; in the assay on MDA-MB-435, 44.1 µM; with OVCAR-8 ovarian, more than 100 µM; in the assay on IGROV1 ovarian, more than 100 µM; in the assay on UO-31 renal, more than 100 µM; in the assay with MALME-3M melanoma it was more than 100 µM. Besides, the concentration for total growth inhibition (TGI) in the assay with UACC-62 melanoma, in the assay with MDA-MB-231 breast, in the assay on SK-MEL-2 melanoma and with OVCAR-3 ovarian was more than 100 µM throughout.

The record behind these values is PubChem BioAssay (NCI).
